Measured values reported in paper PMC8523172, “Structure of mycobacterial CIII2CIV2 respiratory supercomplex bound to the tuberculosis drug candidate telacebec (Q203)” (eLife, 2021).

Assays:
Format in all cases: biochemical
[1] = molecular target: T1, CIII2CIV2 supercomplex, subunit QcrB (QP site) (Mycolicibacterium smegmatis, UniProt I7FGS8+I7GD61); assay: oxygen consumption (DMWH2:O2 oxidoreductase) inhibition of purified enzyme
T1 construct: purified CIII2CIV2 supercomplex with 3×FLAG tag at the C terminus of QcrB; with QcrA (Rieske subunit) within CIII2CIV2

[2] = molecular target: T1, CIII2CIV2 supercomplex, subunit QcrB (QP site); assay: Clark-type electrode oxygen consumption, purified enzyme turnover ([…] substrate)
[3] = molecular target: T1, CIII2CIV2 supercomplex, subunit QcrB (QP site); assay: Clark-type electrode oxygen consumption, purified enzyme

CCc1nc2ccc(Cl)cn2c1C(=O)NCc1ccc(N2CCC(c3ccc(OC(F)(F)F)cc3)CC2)cc1 [telacebec]
IC50 [1]: 53 ± 19 nM

Cc1c(C)c(O)c2ccccc2c1O [DMWH2, 2,3-dimethyl-[1,4]naphthohydroquinone]
Clark-type electrode oxygen consumption, purified enzyme turnover (100 μM substr) [2]: 91 ± 4 e^-/s

Cc1cc(O)c2ccccc2c1O [menadiol, 2-methyl-[1,4]naphthohydroquinone]
Clark-type electrode oxygen consumption, purified enzyme [3]: CIII2CIV2 activity is greater with DMWH2 green curve, than with menadiol brown curve
